In patent publication US20030186289A1, “Model cell systems for screening of anti-hypertrophic therapeutics” (Myogen, Inc., priority 2002, published 2003):

Key:
Type in all cases: cell-based, rat
[1] = tested on: hypertrophic promoter activity (ANF, NFAT, MEF2, aSkAct, Myb); assay: hypertrophic promoter-luciferase constructs in H9C2 cells, agonist dose-response survey; conditions: dose-response survey of agonists
Protocol: FIG. 5—H9C2 promoter activity is unresponsive to the adrenergic agonists isoproterenol, norepinephrine and forskolin. H9 cells were transfected with promoter-luciferase contructs as shown and as described in materials and methods. Transfected cells were treated with hypertrophic agonists as shown. Luciferase units were measured and plotted as fraction of untreated control vs concentration of agonist used. Symbols ANF, NFAT, MEF2, aSkAct, and Myb are used as in FIG. 3.
Plasmid constructs used. Gal4 DNA-binding domain constructs were generated by cloning cDNAs encoding constitutively active murine calcineurin (residues 1-398) and full length human MEF-2 into the pBIND expression vector (Promega, Inc.). VP16 fusion constructs were created by cloning full length human MCIP1 and HDAC5 cDNAs into the pACT expression vector (Promega, Inc.). […] Promoter reporter constructs were generated by cloning the promoter regions of ANF, α-skeletal actin, IL-2 (with multiple NFAT binding sites) and myoglobin genes upstream of a promoter-less firefly luciferase open reading frame (pGL3 plasmid, Promega, Inc.). […]
Luciferase measurement. […] Briefly, cells were washed in serum- and phenol red-free medium, then lysed in the presence of luciferase substrate to produce a long half-life “glow” luminescence. Relative light intensity was quantitated on a Fusion Universal Microplate Analyzer (Packard).

MEF-2 reporter = assay: 3×MEF2 promoter-luciferase reporter in H9C2 cells; conditions: for MEF-2 reporter expression: agonist 100 μM
Source text: Plasmid constructs used. Gal4 DNA-binding domain constructs were generated by cloning cDNAs encoding constitutively active murine calcineurin (residues 1-398) and full length human MEF-2 into the pBIND expression vector (Promega, Inc.). VP16 fusion constructs were created by cloning full length human MCIP1 and HDAC5 cDNAs into the pACT expression vector (Promega, Inc.). In assays, Gal4 and VP16 fusion constructs were cotransfected with pG5-luc reporter (Promega), a firefly luciferase gene under control of a multimerized Gal4 promoter sequence. Promoter reporter constructs were generated by cloning the promoter regions of ANF, α-skeletal actin, IL-2 (with multiple NFAT binding sites) and myoglobin genes upstream of a promoter-less firefly luciferase open reading frame (pGL3 plasmid, Promega, Inc.). Similarly, three consensus MEF-2 binding sites or a single TATA element were cloned into pGL3. HDAC5-GFP construct was a gift from E. Olson, UT Southwestern Medical Center, Dallas Tex.
Cells culture and transient transfections. All muscle cell lines were obtained from the American Type Culture Collection (ATCC). Cells were cultured under conditions recommended by ATCC. Transient transfections were carried out in 96-well plates (5000 cells/well) using the Fugene transfection reagent (Roche), as per manufacturer's instructions. […] Forty-eight hours post-transfection, cells were processed for luciferase measurements.
Adenoviral constructs. Recombinant adenovirus α-skeletal actin-luc, and 3×MEF2-luc were constructed using the Adeasy vector system (Qbiogene) according to manufacturers instructions. Recombinant adenovirus HDAC5 and HDAC5-S259/498A were provided by E. Olson. Recombinant adenovirus MCIPexon4 was provided by S. Williams. Recombinant adenovirus β-galactosidase was from Qbiogene. Cells were plated in 96-well plates, and 24 hr after plating, were infected with recombinant adenovirus at moi of 50 in serum free media for three hrs. Forty-eight hrs after infection, the cells were lysed and luciferase levels were measured as above.
Luciferase measurement. Transiently transfected or adenovirus transfected cells were processed for luciferase activity using the Luc-Lite assay kit (Packard), as per manufacturer's instructions. Briefly, cells were washed in serum- and phenol red-free medium, then lysed in the presence of luciferase substrate to produce a long half-life “glow” luminescence. Relative light intensity was quantitated on a Fusion Universal Microplate Analyzer (Packard).

[2] = tested on: alpha skeletal actin promoter; assay: alpha skeletal actin promoter-luciferase reporter in H9C2 cells
Protocol: Cells culture and transient transfections. […] Cells were cultured under conditions recommended by ATCC. Transient transfections were carried out in 96-well plates (5000 cells/well) using the Fugene transfection reagent (Roche), as per manufacturer's instructions. […] Forty-eight hours post-transfection, cells were processed for luciferase measurements.
Adenoviral constructs. Recombinant adenovirus α-skeletal actin-luc, and 3×MEF2-luc were constructed using the Adeasy vector system (Qbiogene) according to manufacturers instructions. […] Recombinant adenovirus β-galactosidase was from Qbiogene. Cells were plated in 96-well plates, and 24 hr after plating, were infected with recombinant adenovirus at moi of 50 in serum free media for three hrs. Forty-eight hrs after infection, the cells were lysed and luciferase levels were measured as above.

[3] = recombinant adenovirus infection, moi of 50
[4] = drug added at transfection or expression construct, 48 h

Row | Molecule | hypertrophic promoter activity [1] | MEF-2 reporter expression (MEF-2 reporter) | also measured
1 | NC[C@H](O)c1ccc(O)c(O)c1 [norepinephrine] | relatively unaffected |  | 
2 | CC(C)NCC(O)c1ccc(O)c(O)c1 (centres unmarked) [isoproterenol] | relatively unaffected |  | 
3 | CNC[C@H](O)c1cccc(O)c1 [phenylephrine] |  | unaffected | 
4 | HDAC5-S259/498A: mutant of HDAC5 where serine residues 259 and 498 are replaced by alanine; super-repressor of the MEF-2 pathway |  |  | repression of the alpha-skeletal-actin promoter [2, 3]: most effective repressor; repression of the 3×MEF2 promoter (MEF-2 reporter; [3]): most effective repressor
5 | HDAC: anti-hypertrophic gene product HDAC5, MEF-2 inhibitor, expressed by transfection or adenovirus |  |  | expression of alpha skeletal actin reporter [2, 4]: significantly reduced; expression of MEF-2 reporter (MEF-2 reporter; [4]): significantly reduced
6 | CC[C@H](C)[C@H](NC(=O)[C@H](CC(=O)O)NC(=O)[C@H](CC(C)C)NC(=O)[C@H](Cc1c[nH]cn1)NC(=O)[C@@H]1CSSC[C@H](N)C(=O)N[C@@H](CO)C(=O)N[C@H]2CSSC[C@H](NC(=O)[C@H](CCC(=O)O)NC(=O)[C@H](CCCCN)NC(=O)[C@H](CC(=O)O)NC(=O)[C@H](CCSC)NC(=O)[C@H](CC(C)C)NC(=O)[C@H](CO)NC(=O)[C@H](CO)NC2=O)C(=O)N[C@@H](C(C)C)C(=O)N[C@@H](Cc2ccc(O)cc2)C(=O)N[C@@H](Cc2ccccc2)C(=O)N1)C(=O)N[C@H](C(=O)N[C@@H](Cc1c[nH]c2ccccc12)C(=O)O)[C@@H](C)CC [endothelin] |  | unaffected | 
